{"source": "patent US12605383B2", "about": "“Methods of treating cancer” (priority 2020, dated 2026)", "key": {"MC38 s.c. tumor": {"system": "MC38 s.c. tumor", "test": "Subcutaneous MC38 tumor model, tumor size and survival", "conditions": "for Median survival: MC38 s.c. tumor, FIG. 2F"}, "LLC s.c. tumor": {"system": "LLC s.c. tumor", "test": "Subcutaneous LLC tumor model, tumor size and survival", "type": "in vivo, B6 mice"}, "[1]": {"system": "LLC tumor microenvironment", "test": "Flow cytometry of immune cells in LLC tumor tissues", "type": "in vivo, B6 mice", "conditions": "days 6 and 11"}, "[2]": {"system": "LLC tumor-specific T cells", "test": "IFN-γ ELISpot assay of TILs from LLC tumors", "type": "in vivo, B6 mice", "conditions": "2.0×10^4 CD90.2+ TILs, day 7, co-cultured 1:1 with irradiated LLC cells"}, "AE17 cells": {"system": "AE17 cells", "test": "Cell viability (CCK8) assay, AE17 cells", "type": "cell-based, murine", "conditions": "AE17 (KRASG12C mutant), 0.016 up to 7500 nM, 48 h"}, "LLC cells": {"system": "LLC cells", "test": "Cell viability (CCK8) assay, LLC cells", "type": "cell-based, murine", "conditions": "LLC (KRASG12C mutant), 0.016 up to 7500 nM, 48 h"}, "H2122 cells": {"system": "H2122 cells", "test": "Cell viability (CCK8) assay, H2122 cells", "type": "cell-based, human", "conditions": "H2122 (KRASG12C mutant), 0.016 up to 7500 nM, 48 h"}, "[3]": {"system": "viral replication of vvTD and vvTD-IL36γ", "type": "cell-based, vaccinia virus"}, "AE17 s.c. tumor": {"system": "AE17 s.c. tumor", "test": "Subcutaneous AE17 tumor model, tumor size and survival", "type": "in vivo, B6 mice"}, "KRASG12C PDX models": {"system": "KRASG12C PDX models", "conditions": "Janes et al. 2018; cited from earlier work"}}}
{"smiles": "C=CC(=O)N1CCN(c2nc(OC[C@@H]3CCCN3C)nc3c2CCN(c2cccc4cccc(C)c24)C3)C[C@@H]1CC#N", "note": "[MRTX1257]", "values": [{"measurement": "Median survival", "setting": "MC38 s.c. tumor; MRTX1257 60 mg/kg", "value": 24, "unit": "days"}, {"measurement": "Median survival", "setting": "MC38 s.c. tumor; MRTX1257 100 mg/kg", "value": 24, "unit": "days"}, {"measurement": "Median survival", "setting": "MC38 s.c. tumor; MRTX1257 200 mg/kg", "value": 22, "unit": "days"}, {"measurement": "inhibition of tumor growth", "setting": "MC38 s.c. tumor; MC38 tumor model, 60-200 mg/kg, FIG. 2C", "value": "no effect"}, {"measurement": "antitumor effect (tumor size)", "setting": "LLC s.c. tumor; LLC model, MRTX1257 60 mg/kg oral, OVs 2.0e6 pfu/mouse intratumoral, FIG. 3A", "value": "significant antitumor effect"}, {"measurement": "Median survival", "setting": "LLC s.c. tumor; LLC s.c. tumor, MRTX1257 60 mg/kg, FIG. 2D", "value": 36, "unit": "days"}, {"measurement": "Median survival", "setting": "LLC s.c. tumor; LLC s.c. tumor, MRTX1257 100 mg/kg, FIG. 2D", "value": 39.5, "unit": "days"}, {"measurement": "Median survival", "setting": "LLC s.c. tumor; LLC s.c. tumor, MRTX1257 200 mg/kg, FIG. 2D", "value": 45, "unit": "days"}, {"measurement": "inhibition of tumor growth", "setting": "LLC s.c. tumor; LLC tumor model, 60-200 mg/kg, FIG. 2A", "value": "good efficacy"}, {"measurement": "Median survival", "setting": "LLC s.c. tumor; LLC tumor, OV i.t. single dose, MRTX1257 60 mg/kg oral daily for 3 weeks, FIG. 3B", "value": 39, "unit": "days"}, {"measurement": "Median survival", "setting": "LLC s.c. tumor; LLC tumor, combination with PD-1 blockade, FIG. 6E", "value": 39, "unit": "days"}, {"measurement": "CD8+ T cells in tumor tissue", "setting": "[1]", "value": "no reduction"}, {"measurement": "sensitivity of cancer cells to MRTX1257", "setting": "MC38 cells; MC38 (non-KRASG12C), 0.016 up to 7500 nM, 48 h", "value": "less sensitive"}, {"measurement": "drug-mediated cytotoxicity over time", "setting": "MC38 cells; MC38, MRTX1257 at 100 nM, 24-72 h, versus LLC and AE17", "value": "much more resistant"}, {"measurement": "number of IFN-γ ELISpot spots", "setting": "[2]", "value": "~180", "unit": "spots"}, {"measurement": "sensitivity of cancer cells to MRTX1257", "setting": "AE17 cells", "value": "highly sensitive"}, {"measurement": "sensitivity of cancer cells to MRTX1257", "setting": "LLC cells", "value": "highly sensitive"}, {"measurement": "sensitivity of cancer cells to MRTX1257", "setting": "H2122 cells", "value": "more sensitive than A549 cells"}, {"measurement": "effect on viral replication and accumulation of vvTD and vvTD-IL36γ", "setting": "[3]", "value": "small inhibitory effect"}, {"measurement": "Median survival", "setting": "AE17 s.c. tumor; AE17 s.c. tumor, MRTX1257 60 mg/kg, FIG. 2E", "value": 40.5, "unit": "days"}, {"measurement": "Median survival", "setting": "AE17 s.c. tumor; AE17 s.c. tumor, MRTX1257 100 mg/kg, FIG. 2E", "value": 40, "unit": "days"}, {"measurement": "Median survival", "setting": "AE17 s.c. tumor; AE17 s.c. tumor, MRTX1257 200 mg/kg, FIG. 2E", "value": 47, "unit": "days"}, {"measurement": "inhibition of tumor growth", "setting": "AE17 s.c. tumor; AE17 tumor model, 60-200 mg/kg, FIG. 2B", "value": "good efficacy"}, {"measurement": "Median survival", "setting": "AE17 s.c. tumor; AE17 tumor, OV i.t. single dose, MRTX1257 60 mg/kg oral daily for 3 weeks, FIG. 3", "value": 49.5, "unit": "days"}]}
{"smiles": "C=CC(=O)N1CCN(c2ncnc3c(F)c(-c4c(O)cccc4F)c(Cl)cc23)CC1", "note": "[ARS-1620]", "values": [{"measurement": "in vivo antitumor effect", "setting": "KRASG12C PDX models", "value": "tumor regression"}]}
